For four compounds, inhibition and MIC results are on record in ChEMBL document CHEMBL1938230, “6-Position optimization of tricyclic 4-quinolone-based inhibitors of glycogen synthase kinase-3β: discovery of nitrile derivatives with picomolar potency” (Bioorg Med Chem Lett, 2012).

Converted amounts (≈) assume the structure as drawn.

Series [1] deals with Serine/threonine-protein kinase OSR1 (Homo sapiens) (UniProt O95747). Put plainly: Inhibition of human OSR1 in HL-60 cells lysate assessed as reduction of labeling of acyl-phosphate ATP probe at 100 nM. Format: cell-free.
For series [2], the target named is Cyclin-dependent kinase 9 (Homo sapiens) (UniProt P50750). As to the kind of experiment: Inhibition of human CDK9 in HL-60 cells lysate assessed as reduction of labeling of acyl-phosphate ATP probe at 100 nM. Format: cell-free.
Series [3] addresses Serine/threonine-protein kinase PAK 2 (Homo sapiens) (UniProt Q13177). As to the kind of experiment: Inhibition of human PAK2 in HL-60 cells lysate assessed as reduction of labeling of acyl-phosphate ATP probe at 100 nM. Format: cell-free.
The target of series [4] is Glycogen synthase kinase-3 beta (Homo sapiens, UniProt P49841). As to the kind of experiment: Inhibition of human GSK3-beta in HL-60 cells lysate assessed as reduction of labelling of acyl-phosphate ATP probe at 100 nM. Format: cell-free.
For series [5], the target named is T1, Serine/threonine-protein kinase Nek1 (Homo sapiens) (UniProt Q96PY6).
T1 sequence (whole entry): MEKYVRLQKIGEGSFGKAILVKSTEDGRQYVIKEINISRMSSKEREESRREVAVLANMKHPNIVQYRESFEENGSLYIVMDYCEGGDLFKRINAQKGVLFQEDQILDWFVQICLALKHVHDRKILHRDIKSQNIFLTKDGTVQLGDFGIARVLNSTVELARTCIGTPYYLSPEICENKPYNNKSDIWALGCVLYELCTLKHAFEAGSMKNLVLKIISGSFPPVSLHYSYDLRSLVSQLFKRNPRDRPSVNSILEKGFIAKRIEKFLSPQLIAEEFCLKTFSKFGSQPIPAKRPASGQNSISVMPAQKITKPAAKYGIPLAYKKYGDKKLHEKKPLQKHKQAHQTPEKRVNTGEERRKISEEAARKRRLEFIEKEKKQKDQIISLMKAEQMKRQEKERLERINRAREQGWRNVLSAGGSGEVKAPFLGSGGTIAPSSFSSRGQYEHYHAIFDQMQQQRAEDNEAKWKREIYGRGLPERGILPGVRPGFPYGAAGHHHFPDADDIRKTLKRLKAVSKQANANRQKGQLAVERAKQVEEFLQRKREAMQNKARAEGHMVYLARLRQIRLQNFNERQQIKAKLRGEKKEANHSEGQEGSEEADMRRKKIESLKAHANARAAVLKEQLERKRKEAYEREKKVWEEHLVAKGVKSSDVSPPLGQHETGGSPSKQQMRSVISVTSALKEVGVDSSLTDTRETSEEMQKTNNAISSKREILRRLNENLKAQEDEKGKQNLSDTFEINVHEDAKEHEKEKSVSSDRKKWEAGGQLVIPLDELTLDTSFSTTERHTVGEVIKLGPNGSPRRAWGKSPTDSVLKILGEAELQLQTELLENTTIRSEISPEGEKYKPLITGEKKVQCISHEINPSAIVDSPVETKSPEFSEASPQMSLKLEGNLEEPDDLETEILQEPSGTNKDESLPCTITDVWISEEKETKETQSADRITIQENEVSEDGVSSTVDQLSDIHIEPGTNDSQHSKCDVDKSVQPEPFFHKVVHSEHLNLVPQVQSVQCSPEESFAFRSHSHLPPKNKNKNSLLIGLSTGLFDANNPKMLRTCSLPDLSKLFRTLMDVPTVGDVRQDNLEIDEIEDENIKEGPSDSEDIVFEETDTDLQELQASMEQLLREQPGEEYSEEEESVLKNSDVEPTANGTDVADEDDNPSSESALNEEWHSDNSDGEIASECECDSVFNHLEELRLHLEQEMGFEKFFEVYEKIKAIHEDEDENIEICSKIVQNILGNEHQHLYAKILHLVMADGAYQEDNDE
As to the kind of experiment: Inhibition of human NEK1 in HL-60 cells lysate assessed as reduction of labeling of acyl-phosphate ATP probe at 100 nM. Format: cell-free.

The target in series [6] is Cyclin-dependent kinase 7 (Homo sapiens) (UniProt P50613). As to the kind of experiment: Inhibition of human CDK7 in HL-60 cells lysate assessed as reduction of labeling of acyl-phosphate ATP probe at 100 nM. Format: cell-free.
Series [7] addresses T2, Serine/threonine-protein kinase TBK1 (Homo sapiens) (UniProt Q9UHD2).
T2 sequence (whole entry): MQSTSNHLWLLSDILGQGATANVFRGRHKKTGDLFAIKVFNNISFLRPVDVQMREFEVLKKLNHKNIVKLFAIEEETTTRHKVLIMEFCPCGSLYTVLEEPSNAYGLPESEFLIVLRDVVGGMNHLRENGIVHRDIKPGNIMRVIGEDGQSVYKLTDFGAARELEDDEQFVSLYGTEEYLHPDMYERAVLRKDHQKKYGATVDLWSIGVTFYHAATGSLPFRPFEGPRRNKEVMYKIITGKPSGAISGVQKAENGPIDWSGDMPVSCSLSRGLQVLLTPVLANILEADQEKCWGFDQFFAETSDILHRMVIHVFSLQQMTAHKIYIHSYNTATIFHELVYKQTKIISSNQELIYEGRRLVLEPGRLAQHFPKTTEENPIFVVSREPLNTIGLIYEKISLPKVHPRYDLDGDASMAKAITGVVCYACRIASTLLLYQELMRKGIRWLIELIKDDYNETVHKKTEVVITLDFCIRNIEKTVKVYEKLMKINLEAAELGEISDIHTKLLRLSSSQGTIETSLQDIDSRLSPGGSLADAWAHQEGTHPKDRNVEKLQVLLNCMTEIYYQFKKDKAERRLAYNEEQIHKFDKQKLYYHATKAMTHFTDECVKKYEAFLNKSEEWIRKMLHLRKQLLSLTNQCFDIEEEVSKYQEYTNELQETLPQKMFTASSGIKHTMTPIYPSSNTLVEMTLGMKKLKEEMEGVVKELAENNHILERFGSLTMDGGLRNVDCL
As to the kind of experiment: Inhibition of human TBK1 in HL-60 cells lysate assessed as reduction of labeling of acyl-phosphate ATP probe at 100 nM. Format: cell-free.

Series [8] concerns Staphylococcus aureus. Put plainly: Antibacterial activity against Staphylococcus aureus Smith. Format: ADME, organism-based.

Sequence of Cyclin-dependent kinase 9 (Homo sapiens) (P50750 whole entry): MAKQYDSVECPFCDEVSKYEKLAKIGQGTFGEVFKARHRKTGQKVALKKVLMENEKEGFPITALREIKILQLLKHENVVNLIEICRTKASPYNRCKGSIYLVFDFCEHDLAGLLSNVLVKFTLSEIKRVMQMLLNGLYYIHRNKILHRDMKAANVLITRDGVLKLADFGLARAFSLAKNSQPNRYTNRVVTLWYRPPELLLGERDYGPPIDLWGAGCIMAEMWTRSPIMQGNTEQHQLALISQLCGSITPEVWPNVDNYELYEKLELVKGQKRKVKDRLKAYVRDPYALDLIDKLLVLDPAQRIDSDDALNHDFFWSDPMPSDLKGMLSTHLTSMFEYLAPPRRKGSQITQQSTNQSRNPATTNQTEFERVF
Sequence of Serine/threonine-protein kinase OSR1 (Homo sapiens) (O95747 2-527 limits assumed): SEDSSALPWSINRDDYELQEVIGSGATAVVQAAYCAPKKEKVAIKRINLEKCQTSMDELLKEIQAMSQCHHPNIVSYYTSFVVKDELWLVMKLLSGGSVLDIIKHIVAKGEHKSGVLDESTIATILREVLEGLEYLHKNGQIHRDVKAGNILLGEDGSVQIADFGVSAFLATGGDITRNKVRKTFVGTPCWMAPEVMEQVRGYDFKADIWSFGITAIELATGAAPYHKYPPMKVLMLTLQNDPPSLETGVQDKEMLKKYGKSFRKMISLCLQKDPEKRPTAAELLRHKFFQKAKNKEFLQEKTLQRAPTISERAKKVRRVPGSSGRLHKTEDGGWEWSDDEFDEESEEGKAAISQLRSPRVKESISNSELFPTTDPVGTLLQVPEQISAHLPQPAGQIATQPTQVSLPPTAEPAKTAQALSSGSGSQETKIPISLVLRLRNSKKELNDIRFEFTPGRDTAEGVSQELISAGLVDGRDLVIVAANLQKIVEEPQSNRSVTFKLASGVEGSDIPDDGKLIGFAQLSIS
Sequence of Serine/threonine-protein kinase PAK 2 (Homo sapiens) (Q13177 whole entry): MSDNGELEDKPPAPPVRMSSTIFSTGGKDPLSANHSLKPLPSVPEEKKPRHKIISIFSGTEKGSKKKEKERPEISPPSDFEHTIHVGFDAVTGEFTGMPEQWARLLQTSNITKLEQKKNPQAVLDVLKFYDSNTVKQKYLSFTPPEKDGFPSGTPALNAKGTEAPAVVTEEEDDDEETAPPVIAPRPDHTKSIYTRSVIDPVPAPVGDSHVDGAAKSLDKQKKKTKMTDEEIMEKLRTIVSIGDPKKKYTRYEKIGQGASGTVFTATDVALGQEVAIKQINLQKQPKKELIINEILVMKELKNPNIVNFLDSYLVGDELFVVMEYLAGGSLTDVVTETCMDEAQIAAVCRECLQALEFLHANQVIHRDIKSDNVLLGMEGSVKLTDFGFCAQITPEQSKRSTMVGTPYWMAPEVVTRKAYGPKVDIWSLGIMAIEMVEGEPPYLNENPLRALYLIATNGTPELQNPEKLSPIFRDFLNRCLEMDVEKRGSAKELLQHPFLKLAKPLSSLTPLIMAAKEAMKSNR
Sequence of Glycogen synthase kinase-3 beta (P49841 whole entry, looked up): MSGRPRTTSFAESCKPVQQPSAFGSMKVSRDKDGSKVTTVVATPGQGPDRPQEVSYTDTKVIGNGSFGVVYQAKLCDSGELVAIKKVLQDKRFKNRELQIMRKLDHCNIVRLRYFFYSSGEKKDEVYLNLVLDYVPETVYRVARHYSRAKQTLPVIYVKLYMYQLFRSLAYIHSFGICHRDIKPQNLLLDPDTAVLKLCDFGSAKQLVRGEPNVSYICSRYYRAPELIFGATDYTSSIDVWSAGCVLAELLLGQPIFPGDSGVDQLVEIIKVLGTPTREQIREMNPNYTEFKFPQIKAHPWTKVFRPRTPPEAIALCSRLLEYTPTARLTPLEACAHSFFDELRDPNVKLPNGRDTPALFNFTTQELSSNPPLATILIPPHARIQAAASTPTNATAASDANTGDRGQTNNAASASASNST
Sequence of Cyclin-dependent kinase 7 (Homo sapiens) (P50613 whole entry): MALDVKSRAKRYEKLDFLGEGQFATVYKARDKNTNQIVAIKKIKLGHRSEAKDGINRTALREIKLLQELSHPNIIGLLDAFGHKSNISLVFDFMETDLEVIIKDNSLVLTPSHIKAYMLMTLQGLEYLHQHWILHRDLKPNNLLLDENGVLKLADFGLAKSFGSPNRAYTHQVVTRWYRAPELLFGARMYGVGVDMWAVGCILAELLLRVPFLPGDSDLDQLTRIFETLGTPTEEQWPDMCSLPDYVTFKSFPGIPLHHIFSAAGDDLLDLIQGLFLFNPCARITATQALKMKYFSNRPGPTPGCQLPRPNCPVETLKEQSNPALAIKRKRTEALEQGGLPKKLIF

Take `C[C@H]1COc2c(NCCCn3cccn3)c(F)c(N)c3c(=O)c(C#N)cn1c23`: the inhibition in series [1] is < 35%; in series [2], < 35%; in series [3], < 35%; in series [4], 99.2%; in series [5] it was < 35%; in series [6] it was < 35%. Moreover, in series [7], the inhibition is < 35%. In series [8], the MIC is > 306 µM.

For `C[C@H]1COc2c(NCCCc3ccccn3)c(F)c(N)c3c(=O)c(C(=O)O)cn1c23`, the inhibition in series [1] was < 35%; in series [2] it was < 35%; in series [3] it was < 35%; in series [4] it was 82.9%; in series [5], < 35%; in series [6] it was < 35%. For the same compound, in series [7], the inhibition was < 35%. In series [8], this compound displayed an MIC of 2 µM (≈ 0.825 µg/mL).

With `C[C@H]1COc2c(NCCCn3cccn3)c(F)c(N)c3c(=O)c(C(=O)O)cn1c23`, the inhibition in series [1] was < 35%; in series [2], < 35%; in series [3], < 35%; in series [4], 87.8%; in series [5] it was < 35%; in series [6], < 35%. Also, the inhibition in series [7] is < 35%. This compound also showed an MIC in series [8] of 2 µM (≈ 0.803 µg/mL).

Consider `C[C@H]1COc2c(NCCCc3ccccn3)c(F)c(N)c3c(=O)c(C#N)cn1c23`, for which the inhibition is < 35% in series [1]; < 35% in series [2]; < 35% in series [3]; > 99.5% in series [4]; < 35% in series [5]; < 35% in series [6]. Also, the inhibition in series [7] is < 35%. Besides, in series [8], the MIC is > 298 µM.
